Key:
KATO III cells [1] = assay: Apoptosis analysis by flow cytometry (Annexin V-PE/7-AAD); type: cell-based; conditions: 72 h
Description: (§1) Cell cycle and apoptosis assay were both measured by flow cytometry (FCM). The data were analyzed by the NovoExpress software (v1.4.0, Agilent, Santa Clara, CA, United States). For cell cycle assay, the cells were treated by different concentrations of RK-019 for 24 h, then were harvested and washed twice with cold phosphate buffered solution (PBS), followed by fixed with 75% ethanol overnight. Before test, the cells were washed twice with cold PBS and stained with PI stanning solution using cell cycle detecting kit (KGA512, KeyGEN, Nanjing, China), and then measured by FCM. […]

SNU-16 cells [2] = assay: as above; type: cell-based; conditions: SNU-16, 72 h
Description: as §1

In vivo PK assay = assay: In vivo PK assay; set-up: species or system Sprague-Dawley rats; conditions: rats
Description: All animal experiments in this study have been approved by the Institutional Animal Care and Treatment Committee of Sichuan University in China and were carried out in accordance with the approved guidelines. Sprague-Dawley rats (weight 180–200 g, Beijing HJF bioscience, Beijing, China) were used in this experiment and maintained in a specific-pathogen-free (SPF) condition facility. RK-019 was dissolve in ethanol first, followed by mixed with Kolliphor EL, then filled with saline to the calculated volume. The formula was 12.5% ethanol, 12.5% Kolliphor EL, and 75% saline. RK-019 was administrated via i. v. 3 mg/kg or p. o. 30 mg/kg. After 5, 10, 15, 30, 60, 120, 240, 360, 600, and 1,440 min of administration, the blood samples were collected. Plasma fraction was obtained by centrifuged blood, then deproteinized with methanol containing an internal standard. The compound concentrations of the target compound in the supernatant were measured by liquid chromatography–mass spectrometry/mass spectrometry (LC-MS/MS).

KATO III cells [3] = assay: Edu staining assay; type: cell-based; conditions: 100 nM, 24 h
Description: (§2) For Edu staining assay, 1×10^5 cells were seeded in 24-well plates. RK-019 and DMSO were treated as soon as the cells seeded into the plates. After 24 h, the cells were incubated with the medium contained 10 µM Edu for 2 h. After that, the cells were collected and fixated to slide, and then stained with the Cell-Light EdU Apollo488 In Vitro Kit (C10310, Ribobio, Guangzhou, China). After staining, the samples were photographed and analyzed by the ImageJ software (v1.53a, Wayne Rasband, United States).

SNU-16 cells [4] = assay: Edu staining assay; type: cell-based; conditions: SNU-16, 100 nM, 24 h
Description: as §2

KATO III cells [5] = assay: Cell counting assay (trypan blue); type: cell-based; conditions: KATO III, 5, 10, and 100 nM, 9 days
Description: (§3) SNU-16 and KATO III were seeded in 6-well plated with 1×10^5 per well. RK-019 was treated as soon as the cells seeded in the 6-well plates. After indicated time, the images were captured using an inverted microscope. Then, the cells in the captured well were resuspended and live cell numbers were determined by the trypan blue (BL627A, Biosharp, Hefei, China) method.

SNU-16 cells [6] = assay: Cell counting assay (trypan blue); type: cell-based; conditions: SNU-16, 10 and 100 nM, 9 days
Description: as §3

[7] = Sprague-Dawley, rat, plasma, iv, 3 mg/kg i.v
[8] = Sprague-Dawley, rat, plasma, po, 30 mg/kg p.o

With `COc1cc(OC)cc(N(CCN[C@H](C)CO)c2ccc3ncc(-c4cnn(C)c4)c(=O)n3c2)c1` [RK-019, (R)-7-((3,5-dimethoxyphenyl) (2-((1-hydroxypropan-2-yl)amino)ethyl)amino)-3-(1-methyl-1H-pyrazol-4-yl)-4H-pyrido [1,2-a]pyrimidin-4-one] the “population of apoptotic cells (early and late apoptotic cells)” value (KATO III cells [1]) was 32.7%, the “population of apoptotic cells (early and late apoptotic cells)” value (SNU-16 cells [2]) was 45.5% and the AUC(0-t) (In vivo PK assay; [7]) was 763 ± 50.8 ng·h/mL. It also gave a Cmax (In vivo PK assay; [7]) of 461 ± 47.8 ng/mL, an MRT (In vivo PK assay; [7]) of 1.64 ± 0.19 h and a half-life (In vivo PK assay; [7]) of 1.58 ± 0.29 h. It also gave an AUC(0-t) (In vivo PK assay; [8]) of 1450 ng·h/mL, a Cmax (In vivo PK assay; [8]) of 235 ± 77.8 ng/mL and an MRT (In vivo PK assay; [8]) of 4.49 ± 1.19 h. The Tmax (In vivo PK assay; [8]) was 2.67 ± 2.89 h, the half-life (In vivo PK assay; [8]) was 2.83 ± 0.37 h and the “F% (oral relative bioavailability)” value (In vivo PK assay; 30 mg/kg p.o) was 19.00%. For the same molecule, the “number of Edu-positive stained cells” value (KATO III cells [3]) was “significantly decreased”, the “number of Edu-positive stained cells” value (SNU-16 cells [4]) was “significantly decreased” and the “live cell numbers, prolonged administration” value (KATO III cells [5]) was “suppressed”. For the same molecule, the “live cell numbers, prolonged administration” value (SNU-16 cells [6]) was “inhibited”.
